Source: US20260184663A1, “INDENE COMPOUNDS, PHARMACEUTICAL COMPOSITIONS THEREOF, AND THEIR THERAPEUTIC APPLICATIONS” (NucMito Pharmaceuticals co. Ltd., priority 2022, published 2026)

Columns and labels:
Assay type in all cases: cell-based
[1] = system: A549 (lung adenocarcinoma); assay: Antiproliferative activity (CCK-8 cell viability), A549; settings: Homo sapiens, 72 h; for inhibition at 3.3 µM: Compound concentration: 3.3 μM; for inhibition at 3.3 µM / inhibition at 10 µM: read-out: Antiproliferative activity in cancerous cells, A549 (inhibition of cell growth); for inhibition at 10 µM: Compound concentration: 10 μM; for inhibition at 30 µM: Compound concentration: 30 μM, read-out: Antiproliferative activity in cancerous cells, A549
Procedure: (§1) The antiproliferative activity of a compound was determined in the following cell lines: MDA-MB-231 (breast cancer), HepG2 (liver cancer), SW480 (colon cancer), B16F10 (malignant melanoma), A431 (epidermoid carcinoma), A549 (lung adenocarcinoma), and HeLa (cervical cancer). MDA-MB-231, HepG2, SW480, B16F10, and A431 cells were cultured in Dulbecco's modified Eagle's medium (DMEM) containing 10% fetal bovine serum (FBS). HeLa cells were cultured in MEM/EBSS (MEM) containing 10% FBS. A549 cells were maintained in Kaighn's modification of Ham's F-12 medium containing 10% FBS. A Cell Counting Kit-8 (CCK-8) was used to measure the cell viability of different cells following treatment with the compound.
(§2) Briefly cells were seeded in a 96-well plate at a density of 2,000-5,000 cells/well. Following attachment, the cells were treated with the compound in media at a compound concentration of 3.3 μM, 10 μM, or 30 μM. After the cells were incubated at 37° C. for 72 h, a CCK-8 solution (10 μL) was added to each well. After incubation at 37° C. for 4 h, the absorbance value of each well was determined using a multi-well plate reader at 450 nm. The wells treated with DMSO were taken as a vehicle control. Data were also obtained similarly for all the replicates and the percentage of cell viability was determined with respect to the DMSO-treated cells. The results are summarized in Tables 2-4, wherein A represents no less than […] of cell growth; B represents no less than 30% but less than 50% inhibition of cell growth; and C represents less than 30% inhibition of cell growth.

[2] = system: A431 (epidermoid carcinoma); assay: Antiproliferative activity (CCK-8 cell viability), A431; settings: Homo sapiens, 72 h; for inhibition at 3.3 µM: A-431, Compound concentration: 3.3 μM; for inhibition at 3.3 µM / inhibition at 10 µM: read-out: Antiproliferative activity in cancerous cells, A431 (inhibition of cell growth); for inhibition at 10 µM: A-431, Compound concentration: 10 μM; for inhibition at 30 µM: A-431, Compound concentration: 30 μM, read-out: Antiproliferative activity in cancerous cells, A431
Procedure: as §1, §2

[3] = system: MDA-MB-231 (breast cancer); assay: Antiproliferative activity (CCK-8 cell viability), MDA-MB-231; settings: Homo sapiens, 72 h; for inhibition at 3.3 µM: Compound concentration: 3.3 μM; for inhibition at 3.3 µM / inhibition at 10 µM: read-out: Antiproliferative activity in cancerous cells, MDA-MB-231 (inhibition of cell growth); for inhibition at 10 µM: Compound concentration: 10 μM
Procedure: as §1, §2

[4] = system: B16F10 (malignant melanoma); assay: Antiproliferative activity (CCK-8 cell viability), B16F10; settings: Mus musculus, 72 h, read-out: Antiproliferative activity in cancerous cells, B16F10 (inhibition of cell growth); for inhibition at 3.3 µM: B16-F10, Compound concentration: 3.3 μM; for inhibition at 10 µM: B16-F10, Compound concentration: 10 μM
Procedure: as §1, §2

HepG2 (liver cancer) = assay: Antiproliferative activity (CCK-8 cell viability), HepG2; settings: Homo sapiens, 72 h; for inhibition at 3.3 µM: Compound concentration: 3.3 μM; for inhibition at 3.3 µM / inhibition at 10 µM: read-out: Antiproliferative activity in cancerous cells, HepG2 (inhibition of cell growth); for inhibition at 10 µM: Compound concentration: 10 μM
Procedure: as §1, §2

HeLa (cervical cancer) = assay: Antiproliferative activity (CCK-8 cell viability), HeLa; settings: Homo sapiens, 72 h, read-out: Antiproliferative activity in cancerous cells, HELA (inhibition of cell growth); for inhibition at 3.3 µM: Compound concentration: 3.3 μM; for inhibition at 10 µM: Compound concentration: 10 μM
Procedure: as §1, §2

SW480 (colon cancer) = assay: Antiproliferative activity (CCK-8 cell viability), SW480; settings: Homo sapiens, 72 h; for inhibition at 3.3 µM: Compound concentration: 3.3 μM; for inhibition at 3.3 µM / inhibition at 10 µM: read-out: Antiproliferative activity in cancerous cells, SW480 (inhibition of cell growth); for inhibition at 10 µM: Compound concentration: 10 μM; for inhibition at 30 µM: Compound concentration: 30 μM, read-out: Antiproliferative activity in cancerous cells, SW480
Procedure: as §1, §2

SMILES | inhibition at 3.3 µM [1] [%] | inhibition at 10 µM [1] [%] | inhibition at 3.3 µM [2] [%] | inhibition at 10 µM [2] [%] | inhibition at 3.3 µM [3] [%] | inhibition at 10 µM [3] [%] | inhibition at 3.3 µM [4] [%] | inhibition at 10 µM [4] [%] | inhibition at 3.3 µM (HepG2 (liver cancer)) [%] | inhibition at 10 µM (HepG2 (liver cancer)) [%] | inhibition at 3.3 µM (HeLa (cervical cancer)) [%] | inhibition at 10 µM (HeLa (cervical cancer)) [%] | inhibition at 3.3 µM (SW480 (colon cancer)) [%] | inhibition at 10 µM (SW480 (colon cancer)) [%] | inhibition at 30 µM [2] [%] | inhibition at 30 µM (SW480 (colon cancer)) [%] | inhibition at 30 µM [1] [%] | inhibition at 30 µM (HepG2 (liver cancer); Compound concentration: 30 μM, read-out: Antiproliferative activity in cancerous cells, HepG2) [%] | inhibition at 30 µM ([3]; Compound concentration: 30 μM, read-out: Antiproliferative activity in cancerous cells, MDA-MB-231) [%]
CC1=C(CC(=O)O)c2cc(F)ccc2/C1=C\c1cccc(CSc2ccc(F)cc2)c1 [B49, (Z)-2-(5-Fluoro-1-(3-(((4-fluorophenyl)thio)methyl)benzylidene)-2-methyl-1H-inden-3-yl)acetic acid] | < 30 | 30 to 50 | < 30 | 30 to 50 | ≥ 50 | ≥ 50 | ≥ 50 | ≥ 50 | < 30 | ≥ 50 | < 30 | ≥ 50 | < 30 | ≥ 50 |  |  |  |  | 
CC1=C(CC(=O)O)c2cc(F)ccc2/C1=C\c1cccc(C[S+]([O-])c2ccc(F)cc2)c1 (centres unmarked) [B50, (Z)-2-(5-Fluoro-1-(3-(((4-fluorophenyl)sulfinyl)methyl)benzylidene)-2-methyl-1H-inden-3-yl)acetic acid] | < 30 | < 30 | < 30 | < 30 | 30 to 50 | ≥ 50 | ≥ 50 | ≥ 50 | < 30 | < 30 | < 30 | 30 to 50 | < 30 | 30 to 50 | 30 to 50 |  |  |  | 
CC1=C(CC(=O)O)c2cc(F)ccc2/C1=C\c1cccc(CS(=O)(=O)c2ccc(F)cc2)c1 [B51, (Z)-2-(5-Fluoro-1-(3-(((4-fluorophenyl)sulfonyl)methyl)benzylidene)-2-methyl-1H-inden-3-yl)acetic acid] | < 30 | 30 to 50 | 30 to 50 | 30 to 50 | 30 to 50 | ≥ 50 | < 30 | ≥ 50 | < 30 | < 30 | 30 to 50 | ≥ 50 | < 30 | 30 to 50 |  |  |  |  | 
CCc1ccc2c(c1)C(CC(=O)O)=C(C)/C2=C/c1ccc(COc2ccc(F)cc2)cc1 [B52, (Z)-2-(5-Ethyl-1-(4-((4-fluorophenoxy)methyl)benzylidene)-2-methyl-1H-inden-3-yl)acetic acid] | 30 to 50 | ≥ 50 | 30 to 50 | ≥ 50 | ≥ 50 | ≥ 50 | ≥ 50 | ≥ 50 | < 30 | ≥ 50 | 30 to 50 | ≥ 50 | 30 to 50 | ≥ 50 |  |  |  |  | 
CC1=C(CC(=O)O)c2cc(F)c(F)cc2/C1=C\c1ccc(COc2ccc(F)cc2)cc1 [B53, (Z)-2-(5,6-Difluoro-1-(4-((4-fluorophenoxy)methyl)benzylidene)-2-methyl-1H-inden-3-yl)acetic acid] | < 30 | 30 to 50 | 30 to 50 | 30 to 50 | ≥ 50 | ≥ 50 | 30 to 50 | ≥ 50 | < 30 | < 30 | < 30 | < 30 | 30 to 50 | 30 to 50 | 30 to 50 | 30 to 50 |  |  | 
COc1ccc2c(c1)C(CC(=O)O)=C(C)/C2=C/c1ccc(COc2ccc(F)cc2)cc1 [B54, (Z)-2-(1-(4-((4-Fluorophenoxy)methyl)benzylidene)-5-methoxy-2-methyl-1H-inden-3-yl)acetic acid] | < 30 | 30 to 50 | 30 to 50 | 30 to 50 | 30 to 50 | ≥ 50 | ≥ 50 | ≥ 50 | < 30 | < 30 | ≥ 50 | ≥ 50 | < 30 | < 30 | 30 to 50 | < 30 | 30 to 50 | 30 to 50 | 
CCc1ccc2c(c1)C(CC(=O)O)=C(C)/C2=C/c1ccc(COc2ccc(F)c(F)c2)cc1 [B55, (Z)-2-(1-(4-((3,4-Difluorophenoxy)methyl)benzylidene)-5-ethyl-2-methyl-1H-inden-3-yl)acetic acid] | 30 to 50 | ≥ 50 | 30 to 50 | ≥ 50 | ≥ 50 | ≥ 50 | ≥ 50 | ≥ 50 | < 30 | ≥ 50 | < 30 | ≥ 50 | < 30 | ≥ 50 |  |  |  |  | 
CCc1ccc2c(c1)C(CC(=O)O)=C(C)/C2=C/c1ccc(COc2ccc(Cl)cc2)cc1 [B56, (Z)-2-(1-(4-((4-Chlorophenoxy)methyl)benzylidene)-5-ethyl-2-methyl-1H-inden-3-yl)acetic acid] | 30 to 50 | ≥ 50 | ≥ 50 | ≥ 50 | < 30 | 30 to 50 | 30 to 50 | ≥ 50 | ≥ 50 | ≥ 50 | ≥ 50 | ≥ 50 | 30 to 50 | ≥ 50 |  |  |  |  | 
CC1=C(CC(=O)O)c2cc(Cl)ccc2/C1=C\c1ccc(COc2ccc(F)cc2)cc1 [B57, (Z)-2-(5-Chloro-1-(4-((4-fluorophenoxy)methyl)benzylidene)-2-methyl-1H-inden-3-yl)acetic acid] | < 30 | < 30 | 30 to 50 | 30 to 50 | < 30 | < 30 | ≥ 50 | 30 to 50 | < 30 | 30 to 50 | < 30 | ≥ 50 | < 30 | < 30 | 30 to 50 | < 30 | < 30 |  | < 30
